In this assay the target is T1, human recombinant OX2 (hOX2) receptor (Homo sapiens, UniProt O43614).
T1 construct: host or cells: CHO cells
T1 sequence (O43614 1-444): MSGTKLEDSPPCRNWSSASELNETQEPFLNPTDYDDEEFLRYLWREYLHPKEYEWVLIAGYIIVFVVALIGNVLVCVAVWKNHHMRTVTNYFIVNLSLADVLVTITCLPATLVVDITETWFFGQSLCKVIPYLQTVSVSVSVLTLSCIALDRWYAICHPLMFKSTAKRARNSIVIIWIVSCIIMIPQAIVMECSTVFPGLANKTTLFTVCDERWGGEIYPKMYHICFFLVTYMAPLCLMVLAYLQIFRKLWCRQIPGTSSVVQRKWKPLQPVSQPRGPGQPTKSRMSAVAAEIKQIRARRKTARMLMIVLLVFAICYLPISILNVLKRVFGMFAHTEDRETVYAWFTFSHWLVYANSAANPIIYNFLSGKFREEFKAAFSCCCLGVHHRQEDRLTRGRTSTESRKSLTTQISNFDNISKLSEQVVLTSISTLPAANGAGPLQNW
Kind of assay: IP-1 accumulation assay (IP-One HTRF) in hOX2-CHO cells. The assay is classed as cell-based. As to conditions: 60 min at 37° C., mean of at least two independent experiments, read-out: EC50_OX2R Category. The gist of the method: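 hOX2 receptor expressed in CHO cells, seeded in suspension in HBSS with 20 mM HEPES pH 7.4, LiCl and 0.1% BSA; compounds tested as 11-point CRC (0.5% DMSO final), 60 min at 37 °C. IP-1 read by HTRF (665/615 ratio) after 60 min lysis at room temperature; response as % of maximal OX-A response, EC50 by four-parameter logistic fit, mean of ≥2 experiments in duplicate.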
A general note: In TR-FRET formats the signal depends on donor and acceptor labels being close together.

Results on 14 compounds are retold here after patent US20240254143A1, “OREXIN RECEPTOR AGONISTS AND USES THEREOF” (JAZZ PHARMACEUTICALS IRELAND LIMITED, priority 2021, published 2024).

Turning to `O=C1COCC2(CCCN(C(=O)OCC(F)F)C2COC2CCN(c3ncc(F)cn3)CC2)N1` (racemic) [Example 77, 2,2-difluoroethyl-rel-(6S,7R)-7-({[1-(5-fluoropyrimidin-2-yl)piperidin-4-yl]oxy}methyl)-2-oxo-4-oxa-1,8-diazaspiro[5.5]undecane-8-carboxylate], the EC50 lay in the range of 1000 to 10000 nM.

For `C[C@@H]1C[C@@]2(COCC(=O)N2)[C@H](CO[C@H]2CC[C@@H](c3ccccc3)CC2)N1C(=O)C12CC(C1)C2` [Example 60, (1R,3R,5S)-2-{bicyclo[1.1.1]pentane-1-carbonyl}-3-methyl-1-({[(CIS)-4-phenylcyclohexyl]oxy}methyl)-9-oxa-2,6-diazaspiro[4.5]decan-7-one], the EC50 was 1000 to 10000 nM.

On to `CCNC(=O)N1CCC2(COC(=O)N2)C1CO[C@H]1CC[C@@H](c2ccccc2)CC1` (mixture of isomers) [Example 18, (CIS)-N-ethyl-2-oxo-6-({[(CIS)-4-phenylcyclohexyl]oxy}methyl)-3-oxa-1,7-diazaspiro[4.4]nonane-7-carboxamide], for which the EC50 was > 10000 nM.

For the compound `CCNC(=O)N1CCC[C@@]2(CCOC(=O)N2)[C@@H]1CO[C@H]1CC[C@@H](c2ccccc2)CC1` (single isomer, unassigned) [Example 14], the EC50 was < 100 nM.

Consider `O=C1N[C@]2(CCN(C(=O)OCC(F)F)[C@H]2Cc2cccc(-c3cc(F)cc(F)c3)c2F)COC1F` (single isomer, unassigned) [Example 74], for which the EC50 was 1000 to 10000 nM.

For the compound `CCNC(=O)N1CCC[C@@]2(CCOC(=O)N2)[C@@H]1Cc1cccc(-c2ccccc2)c1` [Example 27, (6R,7S)-7-({[1,1′-biphenyl]-3-yl}methyl)-N-ethyl-2-oxo-3-oxa-1,8-diazaspiro[5.5]undecane-8-carboxamide], the EC50 is 100 to 1000 nM.

For the compound `CCNC(=O)N1CCC[C@@]2(COCC(=O)N2)[C@@H]1CO[C@H]1CC[C@@H](c2ccccc2)CC1` (single isomer, unassigned) [Example 3], the EC50 is < 100 nM.

As to `C[C@@H]1C[C@@]2(COCC(=O)N2)[C@H](Cc2cccc(-c3cc(F)cc(F)c3)c2F)N1C(=O)C1CC(F)(F)C1` [Example 86, (1S,3R,5S)-2-(3,3-difluorocyclobutanecarbonyl)-3-methyl-1-({2,3′,5′-trifluoro-[1,1′-biphenyl]-3-yl}methyl)-9-oxa-2,6-diazaspiro[4.5]decan-7-one], the EC50 lay in the range of 100 to 1000 nM.

Turning to `C[C@@H]1C[C@@]2(COCC(=O)N2)[C@H](Cc2cccc(-c3cc(F)cc(F)c3)c2F)N1C(=O)CC(F)(F)F` [Example 84, (1S,3R,5S)-3-methyl-1-({2,3′,5′-trifluoro-[1,1′-biphenyl]-3-yl}methyl)-2-(3,3,3-trifluoropropanoyl)-9-oxa-2,6-diazaspiro[4.5]decan-7-one], the EC50 is 100 to 1000 nM.

Regarding `O=C1COC[C@]2(CCN(C(=O)[C@H]3C[C@@H](F)C3)[C@@H]2Cc2cccc(-c3cc(F)cc(F)c3)c2F)N1` (single isomer, unassigned) [Example 73], the EC50 is > 10000 nM.

`O=C1COCC2(CCCN(C(=O)C3CC3)C2CO[C@H]2CC[C@@H](c3ccccc3)CC2)N1` (mixture of isomers) [Example 7, (CIS)-8-cyclopropanecarbonyl-7-({[(CIS)-4-phenylcyclohexyl]oxy}methyl)-4-oxa-1,8-diazaspiro[5.5]undecan-2-one]: the EC50 fell in the range of 100 to 1000 nM.

`CCNC(=O)N1CCC[C@]2(COC(F)C(=O)N2)[C@H]1CO[C@H]1CC[C@@H](c2ccccc2)CC1` (single isomer, unassigned) [Example 42]: the EC50 was 1000 to 10000 nM.

Turning to `C[C@@H]1C[C@@]2(COCC(=O)N2)[C@H](CO[C@H]2CC[C@@H](c3ccccc3)CC2)N1c1nnnn1C` [Example 64, (1R,3R,5S)-3-methyl-2-(1-methyl-1H-1,2,3,4-tetrazol-5-yl)-1-({[(CIS)-4-phenylcyclohexyl]oxy}methyl)-9-oxa-2,6-diazaspiro[4.5]decan-7-one], the EC50 was < 100 nM.

With `CCNC(=O)N1CCCC2(COCS(=O)(=O)N2)C1CO[C@H]1CC[C@@H](c2ccccc2)CC1` (mixture of isomers) [Example 36, rel-(6S,7R)-N-ethyl-2,2-dioxo-7-({[(CIS)-4-phenylcyclohexyl]oxy}methyl)-4-oxa-2λ^6-thia-1,8-diazaspiro[5.5] undecane-8-carboxamide], the EC50 is 100 to 1000 nM.
